These are literature values, as cited in patent US20190233345A1, “AGRICULTURAL SYSTEMS, COMPOSITIONS AND METHODS FOR INCREASING CROP YIELD” (E. I. DU PONT DE NEMOURS AND COMPANY, priority 2016, published 2019).

Data set [1] has as its system lepidopteran pests of soy (including Army Worm; Spodoptera frugiperda and Velvet Bean Caterpillar (Anticarsia gemmatalis)).
For data set [2], the system named is lepidopteran pests of corn (including Army Worm; Spodoptera frugiperda).

The structures appear in SMILES notation.

Consider `CNC(=O)c1cc(C#N)cc(C)c1NC(=O)c1cc(Br)nn1-c1ncccc1Cl` [HGW, cyantraniliprole], for which the LD-50 in data set [1] and in data set [2] was 50-60 ppb throughout.

Consider `CNC(=O)c1cc(Cl)cc(C)c1NC(=O)c1cc(Br)nn1-c1ncccc1Cl` [Prototype E2Y, chlorantraniliprole], for which the LD-50 in data set [1] and in data set [2] was 15-20 ppb each time.
